Reference: patent US20140011755A1, “Cardiac Glycosides for Treating Autoimmune Disease” (Department of Veterans Affairs, priority 2010, published 2014)
Entries after “also recorded” stand apart in the source; their conditions may differ. Like-named read-outs stand apart in the source and are kept apart here.

Columns and labels:
[1] = cited from earlier work; for Half-life: in vivo; for Onset (m): onset of action; for Peak: time to maximal effect
[2] = Serum concentration obtained with experimental dosing regimen, mouse; assay type: in vivo; conditions: 0.2 mg/kg per diem, i.p., experimentally determined
Procedure: Dosing regimens in humans vary according to the cardiac glycoside and constitution thereof. Table 3 depicts representative dosing regimens reported in the literature compared to experimental regiments used in mice that are representative of human dosing. Successful dosing detailed in this application includes but is not limited to 0.03-0.4 mg/kg., or from 0.001 to 5 mg/kg.

[3] = CHCI3/16% aqueous methanol (MeOH); cited from earlier work
TNF, IL-6 and IL-1beta = assay: Serum cytokine ELISA in CIA treatment groups; assay type: in vivo; conditions: serum from 3 mice per treatment group, ELISA in triplicate
Description: FIG. 9. Serum cytokine levels are similar between vehicle and cardiac glycoside treatment groups. […] The unpaired student t-test was used to assess significance.

[4] = tested on: TNF-mediated NFκB activity in HeLa cells; assay: NFκB luciferase reporter assay in TNF-stimulated HeLa cells; assay type: cell-based; conditions: pre-treatment 6 hours with 0-500 nM, 50 ng/mL TNF
Procedure: FIG. 8. […] Values represent mean light units produced. Error bars represent SEM, and statistical significance was determined by unpaired T-test. Single and double asterisks represent P-values of 0.01 or 0.001, respectively. […] Samples were harvested at designated time points and were fractionated into nuclear and cytoplasmic lysates (Pierce). Lysates were quantified using BCA (Pierce), and were equally loaded according to total protein. Membranes were probed for levels of nuclear phospho-p65 (ReIA), phospho-ReIB, and histone (histone served as loading control and fractionation method control) and cytoplasmic degradation of IκBα (beta-tubulin served as loading control and fractionation method control).
HeLa cells were co-transfected with the reporter pNFκB-luc and control vector pTAL (Renilla) for 18 h prior to incubation with 0-500 nM cardiac glycoside for 6 h. Cells are stimulated with 50 ng/mL TNF. […] FIG. 8 B).

[5] = tested on: collagen-induced arthritis (CIA) joints; assay type: in vivo, DBA1/J mice; conditions: cross-sectioned ankle joints, CIA prevention groups
Procedure: FIG. 7. Cardiac glycosides reduce joint pathology in the CIA mouse model for rheumatoid arthritis. Blinded scoring was performed on histologic sections of joints harvested from mice at the end of a CIA prevention study (A-C). Joints derived from three representative mice belonging to each prevention group (A-C) were decalcified, fixed and stained with tolidine blue, followed by scoring by an examiner blinded to treatment status for the severity of synovitis (inflammation), pannus (growth of the synovial lining), and erosions of bone. (D-G) Joints derived from three representative mice belonging to each prevention group were decalcified, fixed, and stained with hematoxylin and eosin. Cross-sectioned ankle joints from vehicle (D), digitoxin (E), ouabain (F) and proscillaridin (G) treated mice are presented. Error bars represent SEM, and asterisks indicate P-values less than 0.05 by Mann-Whitney test.
In treatment studies, mice were randomly enrolled in treatment groups and treatment commenced when the average clinical score was at or above 2. […] Daily dosing commenced upon enrollment at the abovementioned concentrations. […] Double-blinded histopathology scoring was conducted of cross-sectioned joints taken from cardiac glycoside and vehicle recipients. […] The results obtained from these animal studies indicate that cardiac glycosides are effective at reducing the clinical manifestations of disease and reducing joint pathology in mice with collagen arthritis.
The effects of the different cardiac glycoside treatments on CIA pathology was analyzed by histological scoring. Inflammatory cell infiltrate, synovial hyperplasia, pannus formation and articular cartilage and bone deterioration were evaluated in sectioned paws of treated mice at specific time-points throughout the disease course. […] The ELISA was developed and read using BD ELISA development kit. […]

[6] = injectable versus other formulations; cited from earlier work
TNFR = assay type: cell-based, mice; conditions: pre-treatment with 3.3 or 33 nM
Procedure: (§1) Activity was monitored by ^3H-thymidine incorporation as a read-out for proliferation. […] Cell type(s) in the splenocyte population responsive to therapeutic concentrations of cardiac glycoside were determined by identifying the population of cells that responded to a dose-dependent decrease in activity in the presence of stimulant, defined as ligand(s) binding to cognate receptor(s). Activity was analyzed by: ^3H-thymidine or BrdU incorporation to monitor proliferation or by ELISA to monitor cytokine production. Splenic T lymphocytes were isolated by negative selection (MACS, Miltinyi Biotec) and are stimulated with PMA, ConA or through the TCR with anti-CD3/anti-CD28 Dynabeads (Invitrogen) and collagen II (all non-TNFR receptors/pathways). […] Peritoneal and bone marrow-derived macrophages were isolated from CIA mice in the presence of M-CSF growth factor and were stimulated with TNF and CD40 ligand (CD40L). […] Splenic B lymphocytes were isolated by negative selection (MACS, Miltinyi Biotec) and were stimulated with BAFF (BLyS), CD40L or through the BCR with anti-IgM u-chain specific antibodies.

CD40 = target: T1, CD40 (Mus musculus, UniProt P27512); assay type: cell-based, mice; conditions: pre-treatment with 3.3 or 33 nM
T1 construct: Peritoneal and bone marrow-derived macrophages were isolated from CIA mice; endogenous in cells; host or cells: peritoneal and bone marrow-derived macrophages from CIA mice
T1 sequence (P27512 20-289): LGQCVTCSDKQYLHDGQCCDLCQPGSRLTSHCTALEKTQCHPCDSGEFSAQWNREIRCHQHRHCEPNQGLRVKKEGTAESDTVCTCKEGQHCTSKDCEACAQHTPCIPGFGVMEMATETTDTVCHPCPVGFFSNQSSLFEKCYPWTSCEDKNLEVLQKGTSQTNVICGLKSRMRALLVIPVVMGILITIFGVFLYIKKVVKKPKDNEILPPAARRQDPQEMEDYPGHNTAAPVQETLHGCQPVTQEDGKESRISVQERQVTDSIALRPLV
Procedure: as §1

T cell receptor = assay type: cell-based, mice
Procedure: as §1

[7] = tested on: anti-type II collagen antibodies; assay type: in vivo; conditions: sera of 6 mice per prevention group, ANOVA
Procedure: FIG. 10. Cardiac glycosides reduce immunoglobulin levels in CIA mice. ELISAs for anti-type II collagen antibodies were performed on sera derived from 6 representative mice of each prevention group (A, B). Isotype specific antibodies for IgG1 and IgG2a (A) and IgM (B) were utilized. […] Statistical analysis was performed using ANOVA and asterisks indicate points at which the P-values were less than 0.001.
The effects of the different cardiac glycoside treatments on CIA pathology was analyzed by histological scoring. Inflammatory cell infiltrate, synovial hyperplasia, pannus formation and articular cartilage and bone deterioration were evaluated in sectioned paws of treated mice at specific time-points throughout the disease course. Histopathology scores of inflammation, pannus formation and bone and cartilage erosions were conducted by a blinded investigator on toludine blue-stained cross sections of fixed leg joints from representative mice in vehicle and glycoside groups. Pathology scoring for each of the three categories are on a scale of 0-4 with grade 0=normal, 1=mild inflammation, hyperplasia of the synovial lining, cartilage destruction without bone erosion, grades 2 to 4=increasing degrees of inflammatory cell infiltrate, synovial hyperplasia, pannus formation and cartilage and bone destruction. Error bars represent SEM and statistics were performed using the Mann-Whitney test. At the endpoint, mice are bled and serum is collected from representative mice and stored at −80 C until use. To determine anti-collagen II antibody levels and to characterize isotype prevalence, bovine collagen II (Chondrex) was coated O/N at 4 C on an ELISA plate, washed and incubated with 100 uL of 1:10 dilution of each serum sample (in triplicate) for 2 h at RT. Wells were washed and incubated with anti-mouse IgM u-chain specific (Jackson), anti-mouse IgG1, or anti-mouse IgG2a (Southern Biotech) for 1 h at RT. The ELISA was developed and read using BD ELISA development kit. Statistical analysis was performed using the two-tailed ANOVA and asterisks represent P-values less than 0.01.

[8] = tested on: collagen-induced arthritis (CIA); assay type: in vivo, DBA1/J mice; conditions: for average clinical arthritis scores compared to vehicle, prevention study: first dose one day prior to boost, 0.3 mg/kg digitoxin, 0.03 mg/kg ouabain, […] proscillaridin, 0.35 mg/kg digoxin, […] bufalin, 15 mice per group
rheumatoid arthritis = conditions: cited from earlier work
MRL-Ipr splenic B cells = assay: ANA production by MRL-Ipr splenic B cells in vitro; assay type: cell-based, mice; conditions: B cells pre-treated with 0.8 nM mifepristone, digitoxin 33 nM

C[C@@H]1O[C@@H](O[C@H]2C[C@@H](O)[C@]3(CO)[C@H]4[C@H](O)C[C@]5(C)[C@@H](C6=CC(=O)OC6)CC[C@]5(O)[C@@H]4CC[C@]3(O)C2)[C@H](O)[C@H](O)[C@H]1O [Ouabain, ouabain]
Half-life [1]: 21 h | Onset (m) [1]: 5-10 m | Peak [1]: 0.5 to 2 h | Serum conc. [2]: 16 ng/mL | Partition Coefficient [3]: very low | Serum cytokine levels (TNF, IL-6 and IL-1beta) versus vehicle (TNF, IL-6 and IL-1beta): similar | TNF-mediated NFκB activation (luciferase light units) [4]: reduced TNF-mediated NFκB activation in a dose-dependent fashion | immune cell infiltrate into the joints (hematoxylin and eosin) [5]: decreased amounts of immune cell infiltrate | bioavailability by formulation [6]: higher bioavailability with injectable formulations | TNF-mediated activation of macrophage through TNFR (TNFR): inhibits | CD40L-mediated activation of macrophage through CD40 (CD40): inhibits | proliferation of T cells in response to stimulation through the T cell receptor (T cell receptor; non-TNFR family member, therapeutic concentrations): did not alter proliferation | anti-type II collagen IgG1 level relative to vehicle [7]: reduced levels | anti-type II collagen IgM level relative to vehicle [7]: reduced levels | disease and inflammation (clinical score, paw thickness), dosing every three days i.p. ([8]; 0.9 mg/kg digitoxin or 0.6 mg/kg ouabain, i.p., days −3, 0, 3, 6, 9, 12 after boost): significantly less disease and inflammation | onset of collagen arthritis, dosing every three days sublingual ([8]; 0.9 mg/kg digitoxin or 0.6 mg/kg ouabain, sublingual, days −3, 0, 3, 6, 9, 12 after boost): significantly inhibited the onset of collagen arthritis; also recorded: effective in preventing | development of CIA (Mean Visual Arthritis Score, Mean Paw Thickness), prevention study ([8]; daily i.p. from the day prior to induction, digitoxin 0.3 mg/kg, ouabain 0.03 mg/kg, proscillaridin […]): prevented the development of CIA | average clinical arthritis scores compared to vehicle, prevention study [8]: significantly reduced | prevention and treatment of collagen-induced arthritis (CIA) ([8]; murine model for rheumatoid arthritis, summary statement): potently prevent and treat

C[C@H]1O[C@@H](O[C@H]2[C@@H](O)C[C@H](O[C@H]3[C@@H](O)C[C@H](O[C@H]4CC[C@@]5(C)[C@H](CC[C@@H]6[C@@H]5C[C@@H](O)[C@]5(C)[C@@H](C7=CC(=O)OC7)CC[C@]65O)C4)O[C@@H]3C)O[C@@H]2C)C[C@H](O)[C@@H]1O [Digoxin, digoxin]
Half-life [1]: 36 h | Partition Coefficient [3]: 81.5 | Serum cytokine levels (TNF, IL-6 and IL-1beta) versus vehicle (TNF, IL-6 and IL-1beta): similar | TNF-mediated NFκB activation (luciferase light units) [4]: reduced TNF-mediated NFκB activation in a dose-dependent fashion | proliferation of T cells in response to stimulation through the T cell receptor (T cell receptor): did not alter proliferation | average clinical arthritis scores compared to vehicle, prevention study [8]: significantly reduced

C[C@H]1O[C@@H](O[C@H]2CC[C@@]3(C)[C@H](CC[C@@H]4[C@@H]3C[C@@H](O)[C@]3(C)[C@@H](C5=CC(=O)OC5)CC[C@]43O)C2)C[C@H](O)[C@@H]1O[C@H]1C[C@H](O)[C@H](O[C@H]2C[C@H](O)[C@H](O[C@@H]3O[C@H](CO)[C@@H](O)[C@H](O)[C@H]3O)[C@@H](C)O2)[C@@H](C)O1 [Deslanoside]
Half-life [1]: 33 h | Onset (m) [1]: 10-30 m | Peak [1]: 1 to 2 h

C[C@]12CC[C@H](O)C[C@H]1CC[C@@H]1[C@@H]2CC[C@]2(C)[C@@H](c3ccc(=O)oc3)CC[C@]12O [bufalin]
Serum cytokine levels (TNF, IL-6 and IL-1beta) versus vehicle (TNF, IL-6 and IL-1beta): similar | TNF-mediated NFκB activation (luciferase light units) [4]: reduced TNF-mediated NFκB activation in a dose-dependent fashion | average clinical arthritis scores compared to vehicle, prevention study [8]: significantly reduced

CC(=O)O[C@H]1C[C@H](O[C@H]2[C@@H](O)C[C@H](O[C@H]3[C@@H](O)C[C@H](O[C@H]4CC[C@@]5(C)[C@H](CC[C@@H]6[C@@H]5C[C@@H](O)[C@]5(C)[C@@H](C7=CC(=O)OC7)CC[C@]65O)C4)O[C@@H]3C)O[C@@H]2C)O[C@H](C)[C@H]1O[C@@H]1O[C@H](CO)[C@@H](O)[C@H](O)[C@H]1O [Lanatoside C]
Partition Coefficient [3]: 16.2

CN(Cc1cnc2nc(N)nc(N)c2n1)c1ccc(C(=O)N[C@@H](CCC(=O)O)C(=O)O)cc1 [Methotrexate]
patients having some response (rheumatoid arthritis): 70% | onset of action (rheumatoid arthritis; rheumatoid arthritis patients): 4-6 weeks

CC#C[C@]1(O)CC[C@H]2[C@@H]3CCC4=CC(=O)CCC4=C3[C@@H](c3ccc(N(C)C)cc3)C[C@@]21C [mifepristone]
effect of pre-treatment on digitoxin-specific blockade of autoantibody production (MRL-Ipr splenic B cells): relieved
